Source: US9944618B2, “Inhibiting neurotransmitter reuptake” (Mayo Foundation for Medical Education and Research, priority 2013, dated 2018)

Target: human norepinephrine transporter (Homo sapiens (Human), UniProt P23975)
Experiment: Human NET (norepinephrine transporter) uptake assay
Assay type: cell-based
Conditions: for potency at hNET relative to the other enantiomer or epimer: comparison in words, used to assign configuration
Protocol: This protocol was designed to measure inhibition of uptake by the human norepinephrine transporter. […] The Assay Buffer (AB) was 1×HBSS and 0.02 M HEPES.
The HEK293F cells were transfected with the human norepinephrine transporter and frozen in 1 mL aliquots at about 1E+07 cells/mL. On the day of the experiment, the cells were removed from −80° C. or liquid nitrogen and thawed in a room temperature water bath. The cells were dilute to about 1-2E+06 with Freestyle medium. A 1 mL sample (1:2 dilution) was prepared, and the cells were counted. The cells were spun at 1100 rpm for 5 minutes, and the medium was aspirated off. The cells were resuspend in medium at 1.5E+06 cells/mL for about 60,000 cells per well. 40 μL of cells were dispensed per well in the Biocoat plates. The plates were spun at 1100 rpm for 1 minute to improve homogeneity of the cell layer and were incubated at 37° C. for a minimum of 3 hours.
12 μL of test compound (10 mM) in DMSO was added to the wells, and nomifensine was used as a control. […] The neurotransmitter transporter dye was prepared in AB prior to use.
Due to the proprietary nature of the dye formulation, all dye concentrations were expressed as a percentage of the vendor-recommended dye reconstitution. Thus, the above calculations were valid when both [dye] and Km were expressed in the same units (%). Compounds were tested in triplicate (n=3).

Chain of human norepinephrine transporter (P23975 whole entry): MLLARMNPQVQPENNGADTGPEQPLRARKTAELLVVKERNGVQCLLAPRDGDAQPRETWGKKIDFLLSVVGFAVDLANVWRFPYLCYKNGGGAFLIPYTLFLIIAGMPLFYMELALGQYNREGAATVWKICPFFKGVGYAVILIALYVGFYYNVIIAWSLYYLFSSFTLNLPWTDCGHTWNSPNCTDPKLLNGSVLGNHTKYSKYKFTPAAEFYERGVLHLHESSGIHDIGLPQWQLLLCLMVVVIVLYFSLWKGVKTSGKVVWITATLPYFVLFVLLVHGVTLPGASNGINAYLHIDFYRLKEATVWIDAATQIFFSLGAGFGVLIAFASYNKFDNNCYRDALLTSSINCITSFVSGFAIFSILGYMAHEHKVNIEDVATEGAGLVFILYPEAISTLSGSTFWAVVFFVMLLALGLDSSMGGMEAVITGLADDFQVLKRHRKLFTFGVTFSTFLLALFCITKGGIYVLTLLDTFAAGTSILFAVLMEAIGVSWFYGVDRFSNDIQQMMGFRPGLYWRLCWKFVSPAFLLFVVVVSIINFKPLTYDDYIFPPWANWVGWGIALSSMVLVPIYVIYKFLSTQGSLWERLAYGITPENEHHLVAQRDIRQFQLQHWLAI

Structure (SMILES) | potency at hNET relative to the other enantiomer or epimer | potency at hNET (stated in synthesis example)
CNC[C@@H](c1ccc(Br)c(Cl)c1)[C@@H](O)c1ccccc1 [compound 110] | lower potency | 
CNC[C@@H](c1ccc2ccccc2c1)[C@H](O)c1ccccn1 [compound 99] | lower inhibitory activity | 
CNC[C@H](c1ccc2ccccc2c1)[C@H](O)c1ccc2c(c1)OCCO2 [compound 143] | higher potency | 
CNC[C@H](c1ccc(Cl)c(Cl)c1)[C@H](O)c1cccc(N(C)C)c1 (single isomer, unassigned) [compound 168] | similar | 
CNC[C@@H](c1ccc(Cl)c(Cl)c1)[C@@H](O)c1cccc(SC)c1 [compound 120] | lower inhibitory activity | 
CNC[C@H](c1ccc(Cl)c(Cl)c1)[C@H](O)c1ccccc1OC [compound 160] | greater hNET potency | 
CCc1cccc([C@@H](O)[C@H](CNC)c2ccc(Cl)c(Cl)c2)c1 [compound 159] | more potent | 
CNC[C@H](c1ccc2ccccc2c1)[C@H](O)c1ccc(Cl)nc1 [compound 26] | higher inhibitory activity | 
CNC[C@H](c1ccc(Cl)c(Cl)c1)[C@H](O)c1ccccc1I [compound 164] | greater potency | 
CNC[C@H](c1ccc(Cl)c(Cl)c1)[C@@H](O)c1cccc(NC(C)=O)c1 [compound 94] | more potent | 
CNC[C@H](c1ccc(Cl)c(Cl)c1)[C@H](O)c1cccc(S(C)(=O)=O)c1 [compound 101] | higher potency | 
CNC[C@@H](c1ccc(Cl)c(Cl)c1)[C@H](O)c1cccc(NC(C)=O)c1 [compound 98] | less potent | 
CNCC(CCc1ccccc1)[C@@H](O)c1ccccc1 (stereo partly drawn) [compound 27] | more potent | 
CNC[C@H](c1ccc(Cl)c(Cl)c1)[C@@H](O)c1cccc(SC)c1 [compound 163] | more potent | 
NCC(c1ccc2ccccc2c1)C(O)c1ccc(F)cc1F (stereo not drawn) [compound 107] | higher potency | 
CNCC(CCc1ccccc1)[C@@H](O)c1ccccc1 (stereo partly drawn) [compound 147] | lower potency | 
CNCC(Cc1ccccc1CO)c1ccc2ccccc2c1 (stereo not drawn) [compound 2] | more potent | 
CNCC(c1ccc(Br)c(Cl)c1)[C@H](O)c1ccccc1 (stereo partly drawn) [compound 16] | more potent | 
O[C@@H](c1ccccc1)[C@@H](CNCC(F)(F)F)c1ccc2ccccc2c1 (single isomer, unassigned) [compound 130] | equipotent | 
CNC[C@H](c1ccc(Br)c(Cl)c1)[C@@H](O)c1ccccc1 [compound 21] | more potent | 
CNC[C@H](c1ccc2ccccc2c1)[C@H](O)c1ccccc1C [compound 28] | more potent | 
CNC[C@@H](c1ccc(Cl)c(Cl)c1)[C@@H](O)c1ccsc1 [compound 106] | lower potency | 
NC[C@H](c1ccc2ccccc2c1)[C@@H](O)c1ccncc1Cl [compound 95] | higher inhibitory activity | 

Structure (SMILES) | potency at hNET relative to the other enantiomer or epimer | potency at hNET (stated in synthesis example)
CNC[C@@H](c1ccc2ccccc2c1)[C@@H](O)c1cccnc1 [compound 103] | less potent | 
NC[C@@H](c1ccc2ccccc2c1)[C@@H](O)c1ccc(Cl)nc1 [compound 126] | lower potency | 
CNC[C@@H](c1ccc(Cl)c(Cl)c1)[C@@H](O)c1cccc(N2CCOCC2)c1 [compound 125] | lower inhibitory activity | 
CNC[C@H](c1ccc(Cl)c(Cl)c1)[C@H](O)c1ccccc1 [compound 10] | more potent | 
CNC[C@@H](Cc1ccc(C)s1)c1ccc2ccccc2c1 [compound 44] | higher potency | 
CNC[C@H](c1ccc(Cl)c(Cl)c1)[C@@H](O)c1ccccc1 [compound 70] | more potent | 
CNC[C@@H](c1ccc(Cl)c(Cl)c1)[C@@H](O)c1cncc(OC)c1 [compound 109] | lower potency | 
CNC[C@H](c1ccc(Cl)c(Cl)c1)[C@@H](O)c1cccnc1OC [compound 104] | higher inhibitory activity | 
CNC[C@H](c1ccc2ccccc2c1)[C@H](O)c1cc(F)cc(F)c1 (single isomer, unassigned) [compound 37] | more potent | 
CNC[C@H](c1ccc(Cl)c(Cl)c1)[C@@H](O)c1ccccc1SC [compound 97] | more potent | 
CNC[C@@H](c1ccc(Cl)c(Cl)c1)[C@@H](OC)c1cccc(NS(=O)(=O)C(F)(F)F)c1 [compound 172] | less potent | 
CNC[C@@H](c1ccc2ccccc2c1)[C@H](O)c1ccccc1F [compound 96] | less potent | 
CNC[C@@H](c1ccc(Cl)c(Cl)c1)[C@@H](O)c1ccccc1[S+](C)[O-] (stereo partly drawn) [compound 128] | less potent | 
CNC[C@@H](c1ccc2ccccc2c1)[C@@H](O)c1ccccc1F [compound 78] | less potent | 
CNC[C@@H](c1ccc2ccccc2c1)[C@H](O)c1cc(F)cc(F)c1 [compound 142] | less potent | 
CNC[C@@H](c1ccc2ccccc2c1)[C@@H](O)c1cncc(OC)c1 [compound 122] | lower inhibitory activity | 
CNC[C@H](c1ccc(Cl)c(Cl)c1)[C@@H](O)c1cccc(Br)c1 [compound 161] | more potent | 
CNC[C@H](C[C@H](O)c1ccccc1)c1ccc2ccccc2c1 [compound 93] | less potent | 
CNC[C@@H](c1ccc(Cl)c(Cl)c1)[C@@H](O)c1cccc(OC)n1 [compound 157] | lower potency | 
CNCC(C[C@H](O)c1ccccc1)c1ccc2ccccc2c1 (stereo partly drawn) [compound 85] | more potent | 
CCc1ccccc1[C@@H](O)[C@H](CNC)c1ccc(Cl)c(Cl)c1 [compound 158] |  | 6 nM
CNCC(CCc1ccccc1)[C@H](O)c1ccccc1 (stereo partly drawn) [compound 66] | less potent | 
